Values of other authors as cited in patent US20060116331A1, “Glycosylceramide analogues” (BIOMIRA, INC., priority 2002, published 2006).
Entries after “also recorded” stand apart in the source; their conditions may differ.

Key:
Vα14 NKT cells = settings: for CD1d-restricted, TCR-mediated activation of Vα14 NKT cells (ability to elicit natural killer cell activity): Kawano et al. (1997); for stimulation of Vα14 NKT cells: structure-activity relationship studies
spleen cells = settings: Ijima et al. (1998)

Compound | CD1d-restricted, TCR-mediated activation of Vα14 NKT cells (ability to elicit natural killer cell activity) (Vα14 NKT cells) | further results
3,4-deoxy α-GalCer | active | 
CCCCCCCCCCCCCCC[C@@H](O)[C@H](CO[C@H]1O[C@H](CO)[C@H](O)[C@H](O)[C@H]1O)NC(=O)CCCCCCCCCCCCC [AGL-517] |  | MLR activity (stimulation of spleen cell proliferation by pretreated DCs) (spleen cells): active
CCCCCCCCCCCCCCC[C@@H](O)[C@H](CO[C@H]1O[C@H](CO)[C@@H](O)[C@H](O)[C@H]1O)NC(=O)CCCCCCCCCCCCC [AGL-563] |  | MLR activity (stimulation of spleen cell proliferation by pretreated DCs) (spleen cells): reduced, but did not abolish, activity
CCCCCCCCCCCCCCCCCCCCCCCC(=O)N[C@@H](CO[C@H]1O[C@H](CO)[C@H](O)[C@H](O)[C@H]1O)[C@H](O)[C@H](O)CCCCC [OCH] |  | Th1/Th2 bias (NKT cells): induces Th2 bias
CCCCCCCCCCCCCCCCCCCCCCCCCC(=O)N[C@@H](CO[C@H]1O[C@H](CO)[C@H](O)[C@H](O)[C@H]1O)[C@H](O)[C@H](O)CCCCCCCCCCCCCC [α-GalCer, α-galactosylceramide] | active; also recorded: most active | Th1/Th2 bias (NKT cells): unbiased
Galα1-2Galα1-1′Cer | active | 
Galα1-4Glcβ1-1′Cer | inactive | 
Galα1-6Galα1-1′Cer | active | 
Galα1-6Glcα1-1′Cer | active | 
Galβ1-3Galα1-1′Cer | active | 
ceramide | inactive | 
α-glucosylceramide [α-GlcCer] | active | stimulation of Vα14 NKT cells (Vα14 NKT cells): readily stimulate
α-mannosylceramide [α-ManCer] | inactive | stimulation of Vα14 NKT cells (Vα14 NKT cells): failed to stimulate
